Source: patent US20240391901A1, “SUBSTITUTED HETEROCYCLIC COMPOUND CONTAINING ALPHA-KETONE FRAMEWORK, AND USE THEREOF” (CHINA PHARMACEUTICAL UNIVERSITY, priority 2021, published 2024)

Key:
FAAH = target: T1, FAAH (Homo sapiens, UniProt O00519); assay: In vitro FAAH enzyme inhibition activity assay (FAAH assay kit, fluorescently labeled substrate); assay type: biochemical
T1 construct: purchased
T1 sequence (O00519 1-579): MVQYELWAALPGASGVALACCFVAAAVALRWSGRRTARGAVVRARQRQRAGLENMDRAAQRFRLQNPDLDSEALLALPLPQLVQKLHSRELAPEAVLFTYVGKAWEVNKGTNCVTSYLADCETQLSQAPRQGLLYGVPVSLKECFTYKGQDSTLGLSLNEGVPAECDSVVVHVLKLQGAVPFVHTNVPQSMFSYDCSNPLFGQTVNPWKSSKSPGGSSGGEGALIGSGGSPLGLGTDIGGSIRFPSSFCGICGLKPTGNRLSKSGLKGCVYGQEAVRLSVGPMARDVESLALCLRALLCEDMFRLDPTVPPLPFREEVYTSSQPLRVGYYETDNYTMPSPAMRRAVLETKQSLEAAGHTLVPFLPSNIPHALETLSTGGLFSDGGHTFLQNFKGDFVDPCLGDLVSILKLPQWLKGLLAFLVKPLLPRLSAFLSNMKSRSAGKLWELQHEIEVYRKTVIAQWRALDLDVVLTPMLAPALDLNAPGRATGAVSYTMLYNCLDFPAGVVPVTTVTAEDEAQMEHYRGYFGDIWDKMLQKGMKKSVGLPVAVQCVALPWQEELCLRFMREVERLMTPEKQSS
Method: FAAH hydrolyzes AEA to form ethanolamine within cells. Different enzyme activities catalyze the formation of varying amounts of products from a fixed amount of substrate. The enzyme activity level can be assessed by measuring the amount of products generated. Based on this principle, experiments were designed in this invention. According to the FAAH assay kit instructions, a certain concentration of FAAH was diluted and added to a buffer solution along with a fluorescently labeled substrate. Compounds of various concentrations were then added, along with blank control groups and JZL-195 positive control groups. After the reaction, fluorescence analysis was performed using a plate reader, and the inhibition rate was calculated.

SD rats [1] = assay: Open field test, chlorpromazine-induced depression model; assay type: in vivo; settings: 6 mg/kg
Method: (§1) Male SD rats weighing between 180 g to 200 g were randomly divided into 6 groups, with 8 rats in each group, as follows: Normal group; Chlorpromazine group; Positive control group (Amitriptyline, 6 mg/kg); I-11 low dose group (3 mg/kg); I-11 medium dose group (6 mg/kg); I-11 high dose group (12 mg/kg); In the normal group, rats were maintained under normal conditions. In other groups, rats were intraperitoneally injected with chlorpromazine (0.2 mg/kg) once a day for three days to induce the model. After successful modeling, the respective drugs were administered according to the group. After two weeks of continuous administration, sucrose consumption test, open field test, and forced swimming test were conducted sequentially. After the sucrose preference test, we conducted an open field test on the experimental animals.

SD rats [2] = assay: Forced swimming test, chlorpromazine-induced depression model; assay type: in vivo
Method: as §1, with “sequentially.” for “sequentially. After the sucrose preference test, we conducted an open field test on the experimental animals.”

SD rats [3] = assay: Sucrose preference test, chlorpromazine-induced depression model; assay type: in vivo
Method: Male SD rats weighing between 180 g to 200 g were randomly divided into 6 groups, with 8 rats in each group, as follows: Normal group; Chlorpromazine group; Positive control group (Amitriptyline, 6 mg/kg); I-11 low dose group (3 mg/kg); I-11 medium dose group (6 mg/kg); I-11 high dose group (12 mg/kg); In the normal group, rats were maintained under normal conditions. In other groups, rats were intraperitoneally injected with chlorpromazine (0.2 mg/kg) once a day for three days to induce the model. After successful modeling, the respective drugs were administered according to the group. After two weeks of continuous administration, sucrose consumption test, open field test, and forced swimming test were conducted sequentially. The American Psychiatric Association considers a significant feature of depression to be the decrease in reward responsiveness, indicating a loss of pleasure. The sucrose preference test is a well-established measure for assessing reward responsiveness in experimental animals.

mice = assay: Acetic acid writhing test in mice (analgesic activity); assay type: in vivo; settings: 5 mg/kg s.c
Method: Using the acetic acid writhing test in mice as a pain model to evaluate the analgesic activity of compound I-11. The experimental animal information and procedures are outlined below.
Healthy ICR mice, of clean grade, weighing 20-25 g. The animal facility complies with the requirements of a clean laboratory, with a temperature of 20-22° C., humidity of 40%˜70%, and controlled lighting on a 12-hour light/12-hour dark cycle (lighting from 8:00 to 20:00). Mice are housed in plastic cages (280×150×180 mm) with 10 mice per cage, separated by gender, and provided ad libitum access to food and water. The diet consists of experimental rodent pellets, and the drinking water is city tap water sterilized by high-temperature autoclaving. Mice are allowed a 7-day acclimatization period. All procedures involving animals are conducted following the guidelines of the International Association for the Study of Pain Ethics Committee. Mice are housed in the animal facility upon purchase.
Glacial acetic acid and physiological saline were obtained from the China Pharmaceutical University reagent repository. Compound I-11 was a laboratory-synthesized compound (purity>98%).
Mice were marked with saturated bitter solution, with the left front limb marked as number 1, left hind limb as number 2, right front limb as number 3, right hind limb as number 4, and head as number 5. Combinations such as head with left front limb as number 6, head with left hind limb as number 7, head with right front limb as number 8, head with right hind limb as number 9, and tail as number 10 were used for identification. Animals were divided into groups, with n=10 in each group, evenly distributed between males and females.
The experiment employed the acetic acid-induced writhing test in mice to investigate the analgesic activity of the samples. […] The number of writhing movements and the latency period of mice were observed and recorded 15 minutes after acetic acid injection, and the analgesic percentage was calculated. […]

SMILES	IC50 (FAAH; values in nm) [nM]	IC50 (FAAH; values given in μm [sic]) [nM]	also measured
Cn1c(C(=O)N2CCC(C(=O)c3nnc(-c4ccco4)o3)CC2)cc2cc(Cl)ccc21 [Compound I-15, (5-chloro-1-methyl-1H-indol-2-yl)(4-(5-(furan-2-yl)-1,3,4-oxadiazol-2-carbonyl)piperidin-1-yl)methanone]	3.11	–	–
CN(C)CCC=C1c2ccccc2CCc2ccccc21 [Amitriptyline]	–	–	Frequency of grooming (SD rats [1]): 4.3 ± 0.3 n; Frequency of upright (SD rats [1]): 10.6 ± 2.2 n; Times passing the grid (SD rats [1]): 58.9 ± 2.2 n; Total time in center (SD rats [1]): 4.6 ± 0.6 s; immobility time versus model (in words) (SD rats [2]; Amitriptyline 6 mg/kg, I-11 medium and high dose, p<0.05): reduce the immobility time; Immobility Time (SD rats [2]; model rats, 6 mg/kg): 88.47 ± 4.64 s; sucrose intake compared to the model group (in words) (SD rats [3]; high-dose I-11 (12 mg/kg), amitriptyline 6 mg/kg): significant increase in sucrose intake; Sucrose intake ratio (SD rats [3]; model rats, 6 mg/kg, two weeks of administration): 78.6 ± 4.6 %
Cn1c(C(=O)N2CCC(C(=O)c3nnc(-c4cccc(Cl)c4)o3)CC2)cc2cc(Cl)ccc21 [Compound I-13, (5-chloro-1-methyl-1H-indol-2-yl)(4-(5-(3-chlorophenyl)-1,3,4-oxadiazol-2-carbonyl)piperidin-1-yl)methanone]	89.7	–	–
O=C(Oc1ccc([N+](=O)[O-])cc1)N1CCN(Cc2cccc(Oc3ccccc3)c2)CC1 [JZL-195, reference compound]	2.81	–	–
Cn1c(C(=O)N2CCC(C(=O)c3ccccn3)CC2)cc2cc(Cl)ccc21 [Compound I-3]	–	13500	–
Cn1c(C(=O)N2CCC(C(=O)c3nc4ccccc4s3)CC2)cc2cc(Cl)ccc21 [Compound I-9]	279	–	–
O=C(c1ccccn1)C1CCN(C(=O)c2cnc3ccccc3c2)CC1 [Compound I-5]	–	125000	–
Cn1c(C(=O)N2CCC(C(=O)c3ncc(-c4ccccc4)o3)CC2)cc2cc(Cl)ccc21 [Compound I-10, (5-chloro-1-methyl-1H-indol-2-yl)-(4-(5-phenyl-oxazol-2-carbonyl)piperidin-1-yl)methanone]	112	–	–
O=C(c1ccccn1)C1CCN(Cc2cnc3ccccc3c2)CC1 [Compound I-6, Pyridin-2-yl(1-(quinolin-3-ylmethyl)piperidin-4-yl)methanone]	–	132000	–
Cn1c(C(=O)N2CCC(C(=O)c3ccncc3)CC2)cc2ccccc21 [Compound I-2]	–	14200	–
Cn1c(C(=O)N2CCC(C(=O)c3nnc(-c4cccs4)o3)CC2)cc2cc(Cl)ccc21 [Compound I-16, (5-chloro-1-methyl-1H-indol-2-yl) (4-(5-(thiophene-2-yl)-1,3,4-oxadiazol-2-carbonyl)piperidin-1-yl)methanone]	12.9	–	–
CN1CC[C@]23c4c5ccc(O)c4O[C@H]2[C@@H](O)C=C[C@H]3[C@H]1C5 [Morphine]	–	–	Inhibition (analgesic percentage, writhing) (mice): 100.0%; latency period (mice): 0 s; writhing count (mice; within 15 minutes after acetic acid): 0
O=C(c1ccccn1)C1CCN(C(=O)c2cc3ccccc3o2)CC1 [Compound I-4, (1-(benzofuran-2-carbonyl)piperidin-4-yl)(pyridin-2-yl)methanone]	–	10100	–
Cn1c(C(=O)N2CCC(C(=O)c3ccncc3)CC2)cc2cc(Cl)ccc21 [Compound I-1]	–	27900	–
Cn1c(C(=O)N2CCC(C(=O)c3ncco3)CC2)cc2cc(Cl)ccc21 [Compound I-7, (5-Chloro-1-methyl-1H-indol-2-yl)(4-(oxazole-2-carbonyl)piperidin-1-yl) methanone]	77.9	–	–
Cn1c(C(=O)N2CCC(C(=O)c3nccs3)CC2)cc2cc(Cl)ccc21 [Compound I-8, (5-chloro-1-methyl-1H-indol-2-yl)(4-(thiazol-2-carbonyl)piperidin-1-yl)methanone]	–	1030	–
